From patent US9822130B2, “Triazolo-pyrazinyl derivatives useful as soluble guanylate cyclase activators” (Merck Sharp & Dohme Corp., priority 2014, dated 2017)

Molecular target: T1, sGC α1/β1 heterodimer stably expressed in CHO-K1 cell line (CHO-K1/sGC) (Homo sapiens, UniProt Q02108+Q02153)
T1 construct: expressed in transfected cells
T1 sequence (Q02108 1-690): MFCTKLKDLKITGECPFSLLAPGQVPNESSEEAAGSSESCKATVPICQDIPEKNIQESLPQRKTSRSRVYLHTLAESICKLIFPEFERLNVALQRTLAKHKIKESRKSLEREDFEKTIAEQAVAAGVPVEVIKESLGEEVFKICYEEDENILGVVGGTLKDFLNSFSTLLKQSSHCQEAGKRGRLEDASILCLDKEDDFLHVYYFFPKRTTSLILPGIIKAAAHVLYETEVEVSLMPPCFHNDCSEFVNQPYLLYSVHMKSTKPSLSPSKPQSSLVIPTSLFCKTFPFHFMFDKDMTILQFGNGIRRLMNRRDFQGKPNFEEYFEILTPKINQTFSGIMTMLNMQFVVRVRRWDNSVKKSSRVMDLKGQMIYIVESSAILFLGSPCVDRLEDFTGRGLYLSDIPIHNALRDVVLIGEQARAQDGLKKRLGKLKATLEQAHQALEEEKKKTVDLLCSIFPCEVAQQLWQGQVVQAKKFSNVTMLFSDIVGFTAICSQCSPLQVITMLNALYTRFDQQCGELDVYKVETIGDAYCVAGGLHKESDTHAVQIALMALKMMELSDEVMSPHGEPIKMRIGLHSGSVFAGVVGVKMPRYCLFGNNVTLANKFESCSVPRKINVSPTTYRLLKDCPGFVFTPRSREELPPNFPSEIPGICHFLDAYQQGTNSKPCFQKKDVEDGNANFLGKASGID
T1 sequence (Q02153 1-619): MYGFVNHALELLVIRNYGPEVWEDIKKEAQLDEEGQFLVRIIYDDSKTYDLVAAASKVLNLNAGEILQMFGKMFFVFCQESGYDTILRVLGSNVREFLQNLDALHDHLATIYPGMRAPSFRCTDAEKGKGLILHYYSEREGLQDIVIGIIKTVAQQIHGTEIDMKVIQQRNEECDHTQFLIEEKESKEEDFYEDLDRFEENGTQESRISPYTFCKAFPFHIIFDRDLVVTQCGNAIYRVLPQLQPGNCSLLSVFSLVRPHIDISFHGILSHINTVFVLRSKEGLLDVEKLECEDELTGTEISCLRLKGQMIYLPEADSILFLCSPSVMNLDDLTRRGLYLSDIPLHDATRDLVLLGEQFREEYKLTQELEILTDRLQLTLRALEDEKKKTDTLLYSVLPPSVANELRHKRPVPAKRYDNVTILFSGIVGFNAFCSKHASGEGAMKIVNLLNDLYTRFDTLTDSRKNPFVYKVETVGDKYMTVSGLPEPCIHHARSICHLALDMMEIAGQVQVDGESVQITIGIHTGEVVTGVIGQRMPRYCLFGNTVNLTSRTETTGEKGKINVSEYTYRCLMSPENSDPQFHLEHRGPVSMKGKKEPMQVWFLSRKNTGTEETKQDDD
Test: Cell-based sGC Functional Assay (CASA Assay), cGMP generation
Conditions: CHO-K1/sGC cells, 1 hr at 37° C., cGMP by HTRF, presence or absence of 1 μM DETA-NO not given; for EC50: 4P fit, read-out: IP (nM) (inflection point)
Procedure, shortened: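 CHO-K1 cells stably expressing human sGC α1/β1 (4×10^5/mL, 0.5 mM IBMX) were treated with compounds (2.5% DMSO final) ± 1 μM DETA-NO for 1 hr at 37° C. Intracellular cGMP measured by HTRF. Activity expressed as % of Compound A maximal cGMP; IP and maximum fold induction from 4P fit.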

CC(C)Cc1nc(-c2nc(N)c3c(n2)NC(=O)[C@@]3(C)c2ccc(F)cc2)cn2ncnc12 [Example 73A, (S)-4-amino-5-(4-fluorophenyl)-2-(8-isobutyl-[1,2,4]triazolo[1,5-a]pyrazin-6-yl)-5-methyl-5,7-dihydro-6H-pyrrolo[2,3-d]pyrimidin-6-one] was tested, and the EC50 was 44.1 nM.
C[C@@]1(c2ccc(F)cc2)C(=O)Nc2nc(-c3cn4ncnc4c(CCC(F)(F)F)n3)nc(N)c21 [Example 74A, (S)-4-amino-5-(4-fluorophenyl)-5-methyl-2-(8-(3,3,3-trifluoropropyl)-[1,2,4]triazolo[1,5-a]pyrazin-6-yl)-5,7-dihydro-6H-pyrrolo[2,3-d]pyrimidin-6-one] gave an EC50 of 55.6 nM.
Work on CC1(c2ccc(Cl)c(F)c2)C(=O)Nc2nc(-c3cn4ncnc4c(CCC(F)(F)F)n3)nc(N)c21 (stereo not drawn) [Example 75B, 4-amino-5-(4-chloro-3-fluorophenyl)-5-methyl-2-(8-(3,3,3-trifluoropropyl)-[1,2,4]triazolo[1,5-a]pyrazin-6-yl)-5H-pyrrolo[2,3-d]pyrimidin-6(7H)-one] yielded an EC50 of 20 nM.
Compound CC1(c2ccc(Cl)cc2)C(=O)Nc2nc(-c3cn4ncnc4c(CCC(F)(F)F)n3)nc(N)c21 (stereo not drawn) [Example 76A, 4-amino-5-(4-chlorophenyl)-5-methyl-2-(8-(3,3,3-trifluoropropyl)-[1,2,4]triazolo[1,5-a]pyrazin-6-yl)-5H-pyrrolo[2,3-d]pyrimidin-6(7H)-one] has an EC50 of 154 nM.
CC1(c2ccc(C(F)(F)F)cc2)C(=O)Nc2nc(-c3cn4ncnc4c(CCC(F)(F)F)n3)nc(N)c21 (stereo not drawn) [Example 77B, 4-amino-5-methyl-5-(4-(trifluoromethyl)phenyl)-2-(8-(3,3,3-trifluoropropyl)-[1,2,4]triazolo[1,5-a]pyrazin-6-yl)-5H-pyrrolo[2,3-d]pyrimidin-6(7H)-one] showed an EC50 of 333 nM.
With CC1(c2ccc(C(F)(F)F)cn2)C(=O)Nc2nc(-c3cn4ncnc4c(CCC(F)(F)F)n3)nc(N)c21 (stereo not drawn) [Example 78B, 4-amino-5-methyl-5-(5-(tritluoromethyl)pyridin-2-yl)-2-(8-(3,3,3-trifluoropropyl)-[1,2,4]triazolo[1,5-d]pyrazin-6-yl)-5H-pyrrolo[2,3-d]pyrimidin-6(7H)-one] the EC50 was 550 nM.
For CC1(c2ccc(Cl)cn2)C(=O)Nc2nc(-c3cn4ncnc4c(CCC(F)(F)F)n3)nc(N)c21 (stereo not drawn) [Example 79A, 4-amino-5-(5-chloropyridin-2-yl)-5-methyl-2-(8-(3,3,3-trifluoropropyl)-[1,2,4]triazolo[1,5-a]pyrazin-6-yl)-5H-pyrrolo[2,3-d]pyrimidin-6(7H)-one], the EC50 was 325 nM.
Nc1nc(-c2cn3ncnc3c(CCC(F)(F)F)n2)nc2c1C(c1ccc(C(F)(F)F)cn1)(C1CC1)C(=O)N2 (stereo not drawn) [Example 80A, 4-amino-5-cyclopropyl-5-(5-(trifluoromethyl)pyridin-2-yl)-2-(8-(3,3,3-trifluoropropyl)-[1,2,4]triazolo[1,5-a]pyrazin-6-yl)-5H-pyrrolo[2,3-d]pyrimidin-6(7H)-one] showed an EC50 of 2490 nM.
CC1(c2ccc(F)cn2)C(=O)Nc2nc(-c3cn4ncnc4c(CCC(F)(F)F)n3)nc(N)c21 (stereo not drawn) [Example 81B, 4-amino-5-(5-fluoropyridin-2-yl)-5-methyl-2-(8-(3,3,3-trifluoropropyl)-[1,2,4]triazolo[1,5-a]pyrazin-6-yl)-5H-pyrrolo[2,3-d]pyrimidin-6(7H)-one] was tested, and the EC50 was 698 nM.
Nc1nc(-c2cn3ncnc3c(CCC(F)(F)F)n2)nc2c1C(c1ccc(Cl)cn1)(C1CC1)C(=O)N2 (stereo not drawn) [Example 82A, 4-amino-5-(5-chloropyridin-2-yl)-5-cyclopropyl-2-(8-(3,3,3-trifluoropropyl)-[1,2,4]triazolo[1,5-a]pyrazin-6-yl)-5H-pyrrolo[2,3-d]pyrimidin-6(7H)-one] was tested, and the EC50 was 555 nM.
Nc1nc(-c2cn3ncnc3c(CCC(F)(F)F)n2)nc2c1C(c1ccc(F)c(F)c1)(C1CC1)C(=O)N2 (stereo not drawn) [Example 83A, 4-amino-5-cyclopropyl-5-(3,4-difluorophenyl)-2-(8-(3,3,3-trifluoropropyl)-[1,2,4]triazolo[1,5-a]pyrazin-6-yl)-5H-pyrrolo[2,3-d]pyrimidin-6(7H)-one] gave an EC50 of 270 nM and an Emax (read-out: % Act. (percent activation relative to maximum cGMP production of Compound A = 100%)) of 100%.
Compound CC1(c2ccc(F)c(F)c2)C(=O)Nc2nc(-c3cn4ncnc4c(CCC(F)(F)F)n3)nc(N)c21 (stereo not drawn) [Example 84B, 4-amino-5-(3,4-difluorophenyl)-5-methyl-2-(8-(3,3,3-trifluoropropyl)-[1,2,4]triazolo[1,5-a]pyrazin-6-yl)-5H-pyrrolo[2,3-d]pyrimidin-6(7H)-one] has an EC50 of 55.7 nM.
For C[C@@]1(c2ccc(F)cc2)C(=O)Nc2nc(-c3cn4ncnc4c(Cc4ccc(F)cc4)n3)nc(N)c21 [Example 85B, (S)-4-amino-2-(8-(4-fluorobenzyl)-[1,2,4]triazolo[1,5-a]pyrazin-6-yl)-5-(4-fluorophenyl)-5-methyl-5H-pyrrolo[2,3-d]pyrimidin-6(7H)-one], the EC50 was 10.6 nM.
COc1cccc(Cc2nc(-c3nc(N)c4c(n3)NC(=O)[C@@]4(C)c3ccc(F)cc3)cn3ncnc23)c1 [Example 86B, (S)-4-amino-5-(4-fluorophenyl)-2-(8-(3-methoxybenzyl)-[1,2,4]triazolo[1,5-a]pyrazin-6-yl)-5-methyl-5H-pyrrolo[2,3-d]pyrimidin-6(7H)-one] gave an EC50 of 26.4 nM.
Cc1nc2c(Cc3ccc(F)cc3)nc(-c3nc(N)c4c(n3)NC(=O)[C@@]4(C)c3ccc(F)cc3)cn2n1 [Example 87B, (S)-4-amino-2-(8-(4-fluorobenzyl)-2-methyl-[1,2,4]triazolo[1,5-a]pyrazin-6-yl)-5-(4-fluorophcnyl)-5-methyl-5H-pyrrolo[2,3-d]pyrimidin-6(7H)-one] gave an EC50 of 80.2 nM.
Cc1nc2c(CCC(F)(F)C(F)(F)F)nc(-c3nc(N)c4c(n3)NC(=O)[C@@]4(C)c3ccc(F)cc3)cn2n1 [Example 88B, (S)-4-amino-5-(4-fluorophenyl)-5-methyl-2-(2-methyl-8-(3,3,4,4,4-pentafluorobutyl)-[1,2,4]triazolo[1,5-a]pyrazin-6-yl)-5H-pyrrolo[2,3-d]pyrimidin-6(7H)-one] gave an EC50 of 65 nM.
Cc1nc2c(CCC(F)(F)C(F)(F)F)nc(-c3nc(N)c4c(n3)NC(=O)C4(C)c3ccc(F)cn3)cn2n1 (stereo not drawn) [Example 89B, 4-amino-5-(5-fluoropyridin-2-yl)-5-methyl-2-(2-methyl-8-(3,3,4,4,4-pentafluorobutyl)-[1,2,4]triazolo[1,5-a]pyrazin-6-yl)-5H-pyrrolo[2,3-d]pyrimidin-6(7H)-one] showed an EC50 of 260 nM.
Cc1nc2c(CCC(F)(F)C(F)(F)F)nc(-c3nc(N)c4c(n3)NC(=O)C4(C)c3ccc(Cl)c(F)c3)cn2n1 (stereo not drawn) [Example 90B, 4-amino-5-(4-chloro-3-fluorophenyl)-5-methyl-2-(2-methyl-8-(3,3,4,4,4-pentafluorobutyl)-[1,2,4]triazolo[1,5-a]pyrazin-6-yl)-5H-pyrrolo[2,3-d]pyrimidin-6(7H)-one] gave an EC50 of 36.6 nM.
CCCc1nc(-c2nc(N)c3c(n2)NC(=O)[C@@]3(C)c2ccc(F)cc2)cn2nc(C)nc12 [Example 91A, (S)-4-amino-5-(4-fluorophenyl)-5-methyl-2-(2-methyl-8-propyl-[1,2,4]triazolo[1,5-a]pyrazin-6-yl)-5,7-dihydro-6H-pyrrolo[2,3-d]pyrimidin-6-one] gave an EC50 of 668 nM.
CCCc1nc(-c2nc(N)c3c(n2)NC(=O)C3(C)c2ccc(F)cn2)cn2nc(C)nc12 (stereo not drawn) [Example 92B, 4-amino-5-(5-fluoropyridin-2-yl)-5-methyl-2-(2-methyl-8-propyl-[1,2,4]triazolo[1,5-a]pyrazin-6-yl)-5H-pyrrolo[2,3-d]pyrimidin-6(7H)-one] gave an EC50 of 4830 nM.
